# Measurements: patent publication US20030065030A1, “Autonomic controlling agents and health drinks and foods” (priority 2001, published 2003)
# Read-outs that look alike come from different tables or passages of the source.
# Legend:
# [1] = cited from earlier work
# [2] = system: sympathetic nerve adrenal branches; assay: efferent neural activity of the sympathetic nerve adrenal branches after intravenous carnosine; format: in vivo, rat; settings: 100 ng intravenous
# Description: (§1) According to the method of Niijima (Neurobiology 3:299-307, 1995), the effect of carnosine on the autonomic nerve activity was investigated. Wistar male rats, weighing about 300 g, that had been kept in an environment of room temperature (24° C.) and free access to the feed were fasted (with free access to water) 12 hours before the start of the experiment. Rats were subjected to abdominal section under urethane anesthesia (1 g/kg body weight, intraperitoneal administration), neurofilaments were isolated from central cut ends of a sympathetic nerve branch or a vagal nerve branch, and the efferent neural activity was recorded via an AC amplifier. The neural activity was observed using an oscilloscope and was recorded into magnetic tape. At the same time, the time course of the neural activity was recorded with a pen-type recorder via a rate meter with a reset time set at 5 seconds.
# (§2) Carnosine (100 ng or 1,000 ng dissolved in 0.1 ml physiological saline) was intravenously administered. As the control, physiological saline (0.1 ml) was alone administered intravenously.
# (§3) The effect of carnosine administration was calculated as the neural activity count (%) after carnosine administration relative to neural activity count (mean value of 10 activity counts during 5 minutes) before administration set at 100. Five rats were used for each experiment. Data were tested with ANOVA (p<0.05) and were expressed as mean +/− standard error.
# [3] = system: sympathetic nerve renal branches; assay: efferent neural activity of the sympathetic nerve renal branches after intravenous carnosine; format: in vivo, rat; settings: 1,000 ng intravenous
# Description: as §1, §2, §3
# [4] = system: STZ diabetic rats; assay: anti-hyperglycemia in the STZ diabetic rats undergoing the oral glucose tolerance test; format: in vivo, rat
# Description: Wistar male rats (initial weight, about 250 g) were used. They were housed in a room illuminated with an incandescent light of 80 luxes on the average for 12 hours with free access to feed, and adapted to the environment at least 10 days. Three days before the experiment, rats under anesthesia with pentobarbital (35 mg/kg body weight, intraperitoneal administration) received the insertion of a cardiac catheter comprising a silastic tubing (Dow Corning, Midland, Mich.) and a polyethylene tubing (Clay Adams, Parsippany, N.J.) into the right atrium and a polyethylene tubing into the right lateral cerebral ventricle (LCV).
# Then, the STZ (streptozotocin) diabetic rats were created according to the report by Portha et al. (Diabetes 30:64-69, 1981). Streptozotocin (STZ, manufactured by Sigma) dissolved in 0.05 M citric acid solution (pH 4.5) at a concentration of […] was intraperitoneally administered at 60 mg/kg body weight. To the STZ diabetic rats thus created, an aqueous solution of glucose dissolved at 0.5 g/ml was orally administered at 1 ml (0.5 g) per animal (oral glucose load). Simultaneously with the glucose load, carnosine dissolved in physiological saline was administered to the rats intracranially (0.01 ml) or intraperitoneally (0.1 ml).
# The oral administration employed a sonde, and the intracranially administration was performed via a LVC polyethylene tube and the intraperitoneal administration employed an injection syringe and a needle. The control rats received physiological saline instead of carnosine, and an artificial cerebrospinal fluid instead of 2DG, each at the same amount. Before and at 15, 30, 60, and 90 minutes after the oral administration of glucose, 300 μl of blood was taken via the cardiac catheter and the glucose concentrations in the plasma (blood glucose levels) were determined. The glucose concentration in the plasma at the time of carnosine administration was calculated as a ratio (%) relative to the plasma glucose concentration before glucose administration set at 100. Four or five rats were used in the experiment. Data were tested with ANOVA (p<0.05) and were expressed as mean +/− standard error.
# [5] = system: 2DG hyperglycemic rats; assay: anti-hyperglycemia in the 2DG hyperglycemic rats; format: in vivo, rat
# Text: Since blood glucose levels are expected to be reduced when the activity of the autonomic nervous system is controlled by carnosine at a low dose, the effect of carnosine on anti-hyperglycemia in the 2DG hyperglycemic rats was investigated according to the method of Chun et al. (Brain Research 809:165-174, 1998). Wistar male rats (initial weight, about 250 g) were used that had been acclimated for at least 10 days to an environment in a room illuminated with an incandescent light of 80 lux on the average for 12 hours at room temperature (24 +/− 1° C.) with free access to the feed.
# Three days before the experiment, rats under anesthesia with pentobarbital (35 mg/kg body weight, intraperitoneal administration) received the insertion of a cardiac catheter comprising a silastic tubing (Dow Corning, Midland, Mich.) and a polyethylene tubing (Clay Adams, Parsippany, N.J.) into the right atrium and a polyethylene tubing into the right lateral cerebral ventricle (LCV). On the day of the experiment, carnosine dissolved in physiological saline was administered to the rats intracranially (0.01 ml) or intraperitoneally (0.1 ml) with the simultaneous administration into the rat LCV of 80 μmol 2-deoxy-D-glucose (2DG, 0.01 ml). The control rats received physiological saline instead of carnosine and an artificial cerebrospinal fluid in stead of 2DG, each at the same amount.
# Sixty minutes after the administration of 2DG into the LCV, 300 μl of blood was taken via the cardiac catheter and the plasma level of glucose was determined. The glucose concentrations in the plasma were measured using the Fuji-Dri-chem system (Fuji Film Tokyo) according to the glucose oxidase method. Changes in plasma concentrations of glucose were expressed as a ratio (%) relative to the control value at 90 minutes after 2DG administration set at 100. Four or five rats were used in the experiments. Data were tested with ANOVA (p<0.05) and were expressed as mean +/− standard error.
# [6] = system: carnosine-degrading enzyme; assay: carnosine-degrading enzyme activity in the plasma of rats; format: in vitro ADME
# [7] = 30 minutes after administration
# [8] = 60 minutes after administration
# [9] = 90 minutes after administration
compound,measurement,setting,value
"NCCC(=O)N[C@@H](Cc1cnc[nH]1)C(=O)O [carnosine, β-alanyl-L-histidine]",absorptivity relative to carnosine alone,[1]; administered to the jejunum of mice in combination with L-alanine,more than two-fold higher
same,absorptivity relative to carnosine alone,[1]; administered to the jejunum of mice with β-alanine,more than tripled
same,oral absorptivity,[1]; mice,30-70%
same,suppression rate of efferent neural activity of the sympathetic nerve adrenal branches,[2]; [7],31.3%
same,suppression rate of efferent neural activity of the sympathetic nerve adrenal branches,[2]; [8],46.9%
same,suppression rate of efferent neural activity of the sympathetic nerve adrenal branches,[2]; [9],58.1%
same,suppression rate of efferent neural activity of the sympathetic nerve renal branches,[3]; [7],29.7%
same,suppression rate of efferent neural activity of the sympathetic nerve renal branches,[3]; [8],32.8%
same,suppression rate of efferent neural activity of the sympathetic nerve renal branches,[3]; [9],28.0%
same,suppression rate of increase in blood glucose by oral glucose load,"[4]; 10 ng intracranial, 15 minutes",14.5%
same,suppression rate of increase in blood glucose by oral glucose load,"[4]; 10 ng intracranial, 30 minutes",17.3%
same,suppression rate of increase in blood glucose by oral glucose load,"[4]; 10 ng intracranial, 60 minutes",14.7%
same,suppression rate of increase in blood glucose by oral glucose load,"[4]; 10 ng intracranial, 90 minutes",11.4%
same,suppression rate of increase in blood glucose by oral glucose load,"[4]; 100 ng intraperitoneal, 60 minutes",14.3%
same,suppression rate of increase in blood glucose by oral glucose load,"[4]; 100 ng intraperitoneal, 90 minutes",12.4%
same,effect on hyperglycemia,[5]; 10 ng intracranially administered,suppressed hyperglycemia
same,suppression rate of hyperglycemia (plasma glucose),[5]; 10 ng intraperitoneal,16.0%
same,suppression rate of hyperglycemia (plasma glucose),[5]; 100 ng intraperitoneal,31.5%
same,suppression rate of hyperglycemia (plasma glucose),"[5]; 1,000 ng intraperitoneal",26.8%
same,suppression rate of hyperglycemia (plasma glucose),"[5]; 10,000 ng intraperitoneal",27.6%
same,suppression rate of hyperglycemia (plasma glucose),"[5]; 100,000 ng intraperitoneal",21.9%
same,hypoglycemic action,"[5]; high dose of 1,000,000 ng (3.3 mg/kg body weight) intraperitoneal",did not show any hypoglycemic action
same,carnosine-degrading enzyme activity,[6],0.01 to 0.04 µmol/h/mL
